Measured values published in US10927106B2, “Benzothiazole derivatives as DYRK1 inhibitors” (PHARMASUM THERAPEUTICS AS, priority 2017, dated 2021).

Key:
[1] = tested on: tau/MAPT phosphorylation in TS21 neurons; test: Tau/MAPT phosphorylation in TS21 neuronal cultures, Western blotting; type: cell-based, human; conditions: TS21 neurons
Description: (§1) Overexpression of DYRK1A in DS is thought to account for increased tau phosphorylation by GSK3β and the increase in DYRK1A positive neurofibrillary tangles (NFTs) in the brains of people with DS and AD. Therefore therapeutic inhibition of DYRK1A activity in DS and AD may delay the progression of neurodegeneration in DS and AD. The following experiment on reduction of tau phosphorylation by inhibition of DYRK1A by inhibitor 4-93 was performed as described in the literature (Shi, Y. et al. A human stem cell model of early Alzheimer's disease pathology in Down syndrome. Sci. Transl. Med. 4, 124ra29 (2012)).
(§2) Neuronal cultures at day 40 were treated with DYRK1A inhibitors and control compounds for 10 days. Total protein was extracted and total tau and phosphorylated tau/MAPT was quantified by Western blotting using antibodies to total tau and a number of phospho-tau epitopes.

[2] = molecular target: ULK2 (Homo sapiens (Human), UniProt Q8IYT8); test: Kinase profiling, 33P ATP filter binding assay; type: biochemical; conditions: 1 micromolar inhibitor concentration, read-out: percentage inhibition
[3] = molecular target: TGFBR1 (Homo sapiens (Human), UniProt P36897); test: Kinase profiling, 33P ATP filter binding assay; type: biochemical; conditions: 1 micromolar inhibitor concentration, read-out: percentage inhibition
[4] = molecular target: TBK1 (Homo sapiens (Human), UniProt Q9UHD2); test: Kinase profiling, 33P ATP filter binding assay; type: biochemical; conditions: 1 micromolar inhibitor concentration, read-out: percentage inhibition
[5] = molecular target: EF2K (Homo sapiens (Human), UniProt O00418); test: Kinase profiling, 33P ATP filter binding assay; type: biochemical; conditions: 1 micromolar inhibitor concentration, read-out: percentage inhibition
[6] = molecular target: p38a MAPK (Homo sapiens (Human), UniProt Q16539); test: Kinase profiling, 33P ATP filter binding assay; type: biochemical; conditions: 1 micromolar inhibitor concentration, read-out: percentage inhibition
[7] = tested on: tau/MAPT phosphorylation in control neurons; test: Tau/MAPT phosphorylation in control neurons, Western blotting; type: cell-based, human; conditions: treated for 10 days, compared to DMSO treated controls
Description: as §1, §2

[8] = molecular target: CLK2 (Homo sapiens (Human), UniProt P49760); test: Kinase profiling, 33P ATP filter binding assay; type: biochemical; conditions: 1 micromolar inhibitor concentration, read-out: percentage inhibition
[9] = tested on: ROCK 2; conditions: 1 micromolar inhibitor concentration
Description: (§3) The determination of protein kinase inhibition was performed at the International Centre for Kinase Profiling at the University of Dundee, UK. […] The ATP concentrations were at or below the calculated Km for ATP for each particular kinase.

[10] = tested on: PINK; conditions: 1 micromolar inhibitor concentration
Description: as §3

[11] = tested on: AMPK (hum); conditions: 1 micromolar inhibitor concentration
Description: The ATP concentrations were at or below the calculated Km for ATP for each particular kinase.

[12] = molecular target: GSK3b (Homo sapiens (Human), UniProt P49841); test: Kinase profiling, 33P ATP filter binding assay; type: biochemical; conditions: 1 micromolar inhibitor concentration, read-out: percentage inhibition
[13] = tested on: PHK; conditions: 1 micromolar inhibitor concentration
Description: as §3

[14] = ten days treatment, vs DMSO treated controls or DAPT treated positive controls
[15] = treated for 10 days, normalised to β-actin, vs DMSO treated controls

p38a MAPK, sequence (Q16539 whole entry): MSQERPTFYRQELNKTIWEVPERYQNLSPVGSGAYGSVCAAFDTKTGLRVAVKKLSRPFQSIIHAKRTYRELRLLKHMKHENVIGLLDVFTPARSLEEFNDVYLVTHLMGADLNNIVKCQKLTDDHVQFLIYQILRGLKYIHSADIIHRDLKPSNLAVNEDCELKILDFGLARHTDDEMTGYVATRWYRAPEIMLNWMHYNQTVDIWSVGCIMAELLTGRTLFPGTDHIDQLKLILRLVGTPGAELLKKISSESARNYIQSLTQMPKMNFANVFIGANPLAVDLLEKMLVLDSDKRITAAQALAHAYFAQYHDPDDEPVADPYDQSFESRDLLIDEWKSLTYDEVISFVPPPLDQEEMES
TBK1, sequence (Q9UHD2 whole entry, species assumed): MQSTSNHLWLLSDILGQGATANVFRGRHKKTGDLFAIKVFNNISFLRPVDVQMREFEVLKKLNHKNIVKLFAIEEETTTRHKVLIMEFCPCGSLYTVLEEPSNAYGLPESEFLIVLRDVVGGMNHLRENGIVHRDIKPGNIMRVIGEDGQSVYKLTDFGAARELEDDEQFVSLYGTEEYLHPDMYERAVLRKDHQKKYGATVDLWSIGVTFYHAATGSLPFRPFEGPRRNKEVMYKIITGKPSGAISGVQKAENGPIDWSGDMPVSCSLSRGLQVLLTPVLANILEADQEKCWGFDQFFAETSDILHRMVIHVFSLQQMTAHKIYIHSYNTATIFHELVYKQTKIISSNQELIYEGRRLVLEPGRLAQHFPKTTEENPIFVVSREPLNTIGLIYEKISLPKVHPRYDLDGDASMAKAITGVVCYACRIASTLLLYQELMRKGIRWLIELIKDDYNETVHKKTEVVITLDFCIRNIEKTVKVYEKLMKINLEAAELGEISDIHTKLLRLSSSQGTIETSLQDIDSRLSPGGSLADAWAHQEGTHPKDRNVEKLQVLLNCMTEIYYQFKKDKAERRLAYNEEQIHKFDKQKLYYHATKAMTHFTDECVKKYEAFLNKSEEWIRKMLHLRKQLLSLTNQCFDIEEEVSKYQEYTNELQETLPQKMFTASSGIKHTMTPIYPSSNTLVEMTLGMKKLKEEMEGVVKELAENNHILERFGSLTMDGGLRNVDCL
TGFBR1, sequence (P36897 34-503, species assumed): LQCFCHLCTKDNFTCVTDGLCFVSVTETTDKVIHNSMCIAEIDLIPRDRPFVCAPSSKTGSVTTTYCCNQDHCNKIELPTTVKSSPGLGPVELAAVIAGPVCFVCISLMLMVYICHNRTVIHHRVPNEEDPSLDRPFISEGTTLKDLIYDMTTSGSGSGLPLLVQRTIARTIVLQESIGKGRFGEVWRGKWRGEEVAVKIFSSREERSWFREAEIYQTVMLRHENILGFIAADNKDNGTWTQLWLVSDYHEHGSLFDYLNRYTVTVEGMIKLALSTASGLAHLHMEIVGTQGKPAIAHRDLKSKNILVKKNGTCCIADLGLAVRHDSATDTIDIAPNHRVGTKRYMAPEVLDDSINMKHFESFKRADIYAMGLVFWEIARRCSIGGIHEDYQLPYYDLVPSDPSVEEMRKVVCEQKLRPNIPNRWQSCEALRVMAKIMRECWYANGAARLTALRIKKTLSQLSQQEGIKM
ULK2, sequence (Q8IYT8 whole entry, species assumed): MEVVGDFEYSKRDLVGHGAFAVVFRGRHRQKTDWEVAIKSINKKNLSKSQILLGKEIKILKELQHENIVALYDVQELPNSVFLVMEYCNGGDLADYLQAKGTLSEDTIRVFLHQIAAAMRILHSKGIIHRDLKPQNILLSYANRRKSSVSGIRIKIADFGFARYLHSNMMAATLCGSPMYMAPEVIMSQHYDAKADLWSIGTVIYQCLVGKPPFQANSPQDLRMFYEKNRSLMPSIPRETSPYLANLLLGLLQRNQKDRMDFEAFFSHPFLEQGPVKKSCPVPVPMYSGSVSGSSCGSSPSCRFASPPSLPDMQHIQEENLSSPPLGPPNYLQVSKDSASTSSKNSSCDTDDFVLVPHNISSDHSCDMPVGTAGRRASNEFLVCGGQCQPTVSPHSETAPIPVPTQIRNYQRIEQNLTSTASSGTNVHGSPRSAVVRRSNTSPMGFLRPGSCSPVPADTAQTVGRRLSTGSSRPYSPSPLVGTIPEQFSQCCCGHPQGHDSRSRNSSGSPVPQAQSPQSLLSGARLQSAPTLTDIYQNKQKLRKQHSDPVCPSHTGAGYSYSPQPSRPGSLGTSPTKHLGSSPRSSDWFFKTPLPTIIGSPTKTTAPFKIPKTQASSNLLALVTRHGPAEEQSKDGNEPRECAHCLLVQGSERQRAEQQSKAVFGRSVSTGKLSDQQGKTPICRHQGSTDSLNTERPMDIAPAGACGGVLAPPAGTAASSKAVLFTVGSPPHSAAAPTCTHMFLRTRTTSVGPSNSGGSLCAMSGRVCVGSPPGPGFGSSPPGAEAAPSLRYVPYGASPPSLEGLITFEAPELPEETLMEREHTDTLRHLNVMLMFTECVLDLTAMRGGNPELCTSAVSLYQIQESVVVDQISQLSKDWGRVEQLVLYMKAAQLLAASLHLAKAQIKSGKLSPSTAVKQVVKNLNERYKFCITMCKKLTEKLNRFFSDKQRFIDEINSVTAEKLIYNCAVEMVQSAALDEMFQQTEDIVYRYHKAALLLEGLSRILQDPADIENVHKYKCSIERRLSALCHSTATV
CLK2, sequence (P49760 whole entry, species assumed): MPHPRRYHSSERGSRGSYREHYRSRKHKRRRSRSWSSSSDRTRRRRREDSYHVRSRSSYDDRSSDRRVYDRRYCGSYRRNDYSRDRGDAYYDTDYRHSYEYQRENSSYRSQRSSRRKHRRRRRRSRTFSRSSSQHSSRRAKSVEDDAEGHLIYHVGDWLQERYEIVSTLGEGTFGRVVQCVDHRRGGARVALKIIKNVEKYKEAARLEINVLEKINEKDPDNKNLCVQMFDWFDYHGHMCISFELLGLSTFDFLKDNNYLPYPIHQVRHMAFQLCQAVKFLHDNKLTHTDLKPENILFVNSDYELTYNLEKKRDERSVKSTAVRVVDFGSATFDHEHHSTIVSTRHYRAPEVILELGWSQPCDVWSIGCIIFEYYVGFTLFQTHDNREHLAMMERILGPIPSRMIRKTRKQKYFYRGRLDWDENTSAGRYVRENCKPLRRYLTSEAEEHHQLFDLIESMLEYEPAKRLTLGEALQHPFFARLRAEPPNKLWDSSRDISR
GSK3b, sequence (P49841 whole entry, species assumed): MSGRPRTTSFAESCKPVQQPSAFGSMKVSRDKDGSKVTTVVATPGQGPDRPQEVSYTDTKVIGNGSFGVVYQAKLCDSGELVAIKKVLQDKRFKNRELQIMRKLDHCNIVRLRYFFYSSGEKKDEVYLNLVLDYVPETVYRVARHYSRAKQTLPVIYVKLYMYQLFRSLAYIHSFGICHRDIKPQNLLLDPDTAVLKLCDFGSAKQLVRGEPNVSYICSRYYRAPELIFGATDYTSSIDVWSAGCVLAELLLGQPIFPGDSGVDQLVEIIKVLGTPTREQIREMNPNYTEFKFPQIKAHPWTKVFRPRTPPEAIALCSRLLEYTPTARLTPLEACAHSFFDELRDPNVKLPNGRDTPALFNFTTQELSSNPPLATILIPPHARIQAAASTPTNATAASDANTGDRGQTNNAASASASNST

Compound | phosphorylation of Ser 214 normalised to total tau levels ([1]; ten days treatment) | phosphorylated tau/MAPT at Ser 396 normalised to total tau levels [1, 14] | phosphorylated tau/MAPT at Ser 404 normalised to total tau levels [1, 14] | tau phosphorylation at Ser 396 [1, 15] | tau phosphorylation at Ser 404 [1, 15] | phosphorylation at Ser 214 ([1]; treated for 10 days, site not phosphorylated by DYRK1A) | inhibition at 1 µM [2] | inhibition at 1 µM [3] | inhibition at 1 µM [4] | inhibition at 1 µM [5] | inhibition at 1 µM [6] | tau/MAPT phosphorylation at Ser 396 [7] | tau/MAPT phosphorylation at Ser 404 [7] | inhibition at 1 µM [8] | percentage inhibition [9] | percentage inhibition [10] | percentage inhibition [11] | inhibition at 1 µM [12] | percentage inhibition [13]
COc1ccc2sc(-c3cncc(NC(C)=O)c3)nc2c1 [4-93, N-(5-(5-Methoxybenzo[d]thiazol-2-yl)pyridin-3-yl)acetamide] | unaffected | significantly lower | significantly lower | significantly reduced | significantly reduced | do not affect | 0% | 0% | 0% | 0% | 0% | slight increase | slight increase | – | – | – | – | – | –
CS(=O)(=O)Nc1cncc(-c2nc3cc(O)ccc3s2)c1 [4-99, N-(5-(5-Hydroxybenzo[d]thiazol-2-yl)pyridin-3-yl)methanesulfonamide] | – | – | – | – | – | – | 0% | 0% | 0% | 0% | 0% | – | – | 44% | 0% | 0% | 0% | 0% | 0%
